Assay results published in patent US20230365624A1, “NOVEL ANGIOTENSIN I-CONVERTING ENZYME (ACE) INHIBITORY PEPTIDES” (Thai Union Group Public Company Limited, priority 2020, published 2023).
No end group written: not given here.

System: GI enzymes (pepsin and pancreatin)
Assay: In vitro gastrointestinal (GI) digestion of synthetic peptides, with ACE inhibitory activity and α-amino group content before and after
Format: in vitro ADME
Conditions: pepsin pH 2.0, 37° C., 1 h, then pancreatin pH 7.5, 37° C., 2 h (FIG. 6)
Description: It is necessary for ACE inhibitory peptides to retain its activity in GI tract so that it can be absorbed into the bloodstream, where the peptide inhibitors can show their hypotensive effect. In vitro gastrointestinal digestion provides an easy process to imitate antihypertensive activity of peptides under oral administration. […] In vitro GI digestion was simulated according to the method of Zhu et al. (2008) with some modifications. One milligram of each sample was dissolved in 0.5 ml of 0.1 M KCl-HCl, and the pH was adjusted to 2.0 with 6 M HCl. Pepsin (1% enzyme/substrate, w/w) was added, and the mixture was incubated in a shaking water bath at 37° C. for 1 h, and the pH was then adjusted to pH 7.5. […] ACE inhibitory activity and α-amino groups content of the peptides before and after in vitro GI digestion were measured. […]
ACE inhibitory activity assay was carried out according to the methods of Cushman and Cheung (1971) and Wu et al. (2002) with some modifications. […] Absorbance was measured at 228 nm. The percentage of ACE inhibition was calculated as follows: […]
Content of α-amino groups was performed according to Adler-Nissen (1979). […] The mixture was left at room temperature for 30 min before an absorbance at 420 nm was monitored. […] The content of α-amino groups was expressed as leucine equivalents.

With VSVVQYSR [VSVVQYSR] as the sequence, how does the “Decrease of ACE inhibitory activity after GI digestion” value read?
The value was ~19%.
